Source: patent publication US6605704B1, “Plant-origin regulator protein and nucleic acid encoding the same” (Japan Tobacco Inc., priority 1999, dated 2003)
Where two headings read alike, the source gives them in different places.

Key:
[1] = test system: mRNA of ZmCip1; assay: Northern analysis after t-zeatin, benzyladenine or abscisic acid treatment of cut leaves; assay type: cell-based, maize (Zea mays L.cv. Golden Cross Bantam T51); conditions: 100 or 180 minutes, nitrogen-deficient leaves
Experimental: (§1) The cut leaves of the maize cultivated under the low-nitrogen condition as mentioned above was treated with 5 μM t-zeatin or with water for 0 minute, 30 minutes, 45 minutes, 60 minutes or 90 minutes, and the ⅓ portions from the distal ends of the leaves was collected. After freezing the collected leaves with liquid nitrogen, RNAs were extracted by the guanidine thiocyanate/cesium chloride method. Ten micrograms of the obtained RNAs were fractionated by formaldehyde gel (1%) electrophoresis and the resultant was transferred to a nylon membrane. Hybridization was performed using ZmCip1 cDNA or maize ubiquitin gene as a probe.
(10) The cut leaves of the maize cultivated under the low-nitrogen condition as mentioned above were treated with 5 μM t-zeatin, 5 μM benzyladenine, 10 μM±abscisic acid or with water for 100 minutes or 180 minutes, and Northern analysis was performed as in (4).

[2] = test system: mRNA of ZmCip 1; assay: Northern analysis of induction of expression of CIP1 by cytokinin treatment and cycloheximide treatment; assay type: cell-based, maize (Zea mays L.cv. Golden Cross Bantam T51); conditions: as printed under experiment (8), nitrogen-deficient maize green leaves
Experimental: (§2) The cut leaves of the maize cultivated under the low-nitrogen condition as mentioned above were treated with 16 mM NaNO3 solution or with 0.08 mM NaNO3 solution for 0 hour, 2 hours, 5 hours, […] or 24 hours and Northern analysis was carried out in the same manner as in (4) except that the weight of the RNAs applied to each gel was 20 μg, respectively, and that a non-coding region of ZmCip1 was used as a probe.
The cut leaves of the maize cultivated under the low-nitrogen condition as mentioned above were treated (i) with water for 60 minutes and then with water for 90 minutes, (ii) with water for 60 minutes and then with 5 μM t-zeatin for 90 minutes, (iii) with 20 μg/ml of cycloheximide for 60 minutes and then with 20 μg/ml cycloheximide and 5 μM t-zeatin for 90 minutes, or (iv) with 20 μg/ml of cycloheximide for 60 minutes and then with 20 μg/ml of cycloheximide for 90 minutes, and Northern analysis was performed in the same manner as in (5) except that the amount of the RNAs applied to each gel was 30 μg.

[3] = test system: mRNA of ZmCip1; assay: Northern analysis of induction of expression of CIP1 by ammonium ion, cut leaves; assay type: cell-based, maize (Zea mays L.cv. Golden Cross Bantam T51); conditions: 6 mM NH4+, nitrogen-deficient maize green leaves
Experimental: as §2
The cut leaves of the maize cultivated under the low-nitrogen condition as mentioned above were treated with 6 mM NH4^+ solution or with 0.08 mM NaNO3 solution for 0 to 7 hours and Northern analysis was carried out in the same manner as in (5) except that the weight of the RNAs applied to each gel was 15 μg.

[4] = test system: mRNA of ZmCip1
Experimental: as §1, §2

[5] = test system: mRNA of ZmCip1; conditions: 16 mM NaNO3, 5 hours after treatment
Experimental: as §2
The maize cultivated under the low-nitrogen condition as mentioned above was treated with 16 mM NaNO3 solution or with 0.08 mM NaNO3 solution for 5 hours, and its leaf blades, leaf sheaths and roots were separately collected, followed by Northern analysis in the same manner as in (5) except that the amount of the RNAs from leaf sheaths or roots applied to each gel was 30 μg.

[6] = test system: mRNA of ZmCip1; conditions: 5 μM, nitrogen-deficient maize green leaves
Experimental: as §1

[7] = test system: ZmCip1 gene
Experimental: (3) Assay of Induction of Expression of CIP 1 by Cytokinin Treatment (Run-Off Transcription Assay) Run-off transcription assay for expression of ZmCip1 gene was carried out. Nuclei were isolated from maize mesophyll cells and its RNA synthesis activity was measured according to a reported method (I. Suzuki, C. Cretin, T. Omata, T. Sugiyama, Plant Physiol.105:1223,1994). The RNAs synthesized by the isolated nuclei were fractionated by formaldehyde gel electrophoresis and the fractionated RNAs were transferred to a nylon membrane, followed by hybridization with ^32P-labeled ZmCip 1 cDNA or C4Ppc1 cDNA. The intensity of the detected signal was measured by Bio Imaging Analyzer (BAS2000, Fuji Film).

[8] = test system: mRNA of ZmCip1; conditions: 10^−11 to 10^−7 M tested, 100 or 180 minutes, cut leaves
Experimental: as §2

[9] = test system: mRNA of ZmCip1; conditions: 5 μM, 100 minutes, nitrogen-deficient leaves
Experimental: as §2
The cut leaves of the maize cultivated under the low-nitrogen condition as mentioned above were treated with 5 μM t-zeatin, 5 μM zeatin-O-glucoside or with water for 100 minutes, and Northern analysis was performed in the same manner as in (5), except that the amount of the RNAs applied to each gel was 15 μg.

**Q.** How did the “induction of expression of ZmCip1 mRNA” value ([1]; 10 μM) turn out when CC1=CC(=O)CC(C)(C)[C@@]1(O)/C=C/C(C)=C\C(=O)O [abscisic acid] was run?
**A.** Its value is “slightly induced”.

**Q.** Which results are given for N [ammonium ion]?
**A.** time after treatment at which ZmCip1 mRNA was confirmed [2]: 5 h; time after treatment at which the gene was strongly expressed [2]: 6 to 7 h; time after treatment at which ZmCip1 mRNA was confirmed [3]: 5 h; time after treatment at which the gene was strongly expressed [3]: 6 to 7 h

**Q.** Which “induction of expression of ZmCip1 mRNA” value ([1]; 5 μM) does the source give for c1ccc(CNc2ncnc3nc[nH]c23)cc1 [benzyladenine] here?
**A.** Its value is “induced”.

**Q.** O=[N+]([O-])[O-].[Na+] [nitrate ion, NaNO3] was tested. Which “expression of the gene 24 hours after the treatment” value ([4]; 16 mM NaNO3, 24 hours) did it give?
**A.** Its value is “scarcely observed”.

**Q.** And the “time after treatment at which accumulation of ZmCip1 mRNA was confirmed” value ([4]; 16 mM NaNO3, nitrogen-deficient green leaves)?
**A.** The value was 5 to 6 h.

**Q.** What about the “accumulation of ZmCip1 mRNA in green leaves” value ([5]; nitrogen-deficient maize green leaves) of the same molecule?
**A.** Its value is “confirmed”.

**Q.** And the “expression of ZmCip1 mRNA in roots” value ([5]; roots)?
**A.** The value was “scarcely observed”.

**Q.** With C/C(=C\CNc1ncnc2[nH]cnc12)CO [t-zeatin] as the molecule, how does the “time after treatment at which accumulation of ZmCip1 mRNA was confirmed” value [6] read?
**A.** Its value is 30 min.

**Q.** What about the “time after treatment at which the gene was strongly expressed” value [6] of the same molecule?
**A.** The value was 45 to 90 min.

**Q.** What about the “treatment time that causes transcription of ZmCip1 mRNA” value ([7]; cut leaves of maize cultivated under low-nitrogen condition, nuclei from mesophyll cells) of the same molecule?
**A.** The value was 20 min.

**Q.** And the “timing of ZmCip1 transcription compared with transcription of C4Ppc1 mRNA” value ([7]; same leaves treated with t-zeatin)?
**A.** The value was “much earlier stage”.

**Q.** And the “induction of expression of ZmCip1 mRNA” value ([1]; 5 μM)?
**A.** Its value is “induced”.

**Q.** What about the “low level of t-zeatin at which expression of ZmCip1 mRNA was induced” value [8] of the same molecule?
**A.** Its value is 10^−9 M.

**Q.** What about the “induction of expression of ZmCip1 mRNA” value [9] of the same molecule?
**A.** The value was “induced”.

**Q.** zeatin-O-glucoside was tested. Which “induction of expression of ZmCip1 mRNA” value [9] did it give?
**A.** The value was “induced”.
